Source: patent publication US12084453B2, “Bicyclic amines as CDK12 inhibitors” (Incyte Corporation, priority 2021, dated 2024)

These compounds were tested against T1, CDK12 complexed with Cyclin K (Homo sapiens, UniProt Q9NYV4) (assay: CDK enzymatic assay (HTRF, LANCE Ultra kinase assay)). Conditions: 60 minutes pre-incubation with compound; 1 mM ATP.
T1 construct: GST (N); host or cells: baculovirus expression system
T1 sequence (Q9NYV4 whole entry): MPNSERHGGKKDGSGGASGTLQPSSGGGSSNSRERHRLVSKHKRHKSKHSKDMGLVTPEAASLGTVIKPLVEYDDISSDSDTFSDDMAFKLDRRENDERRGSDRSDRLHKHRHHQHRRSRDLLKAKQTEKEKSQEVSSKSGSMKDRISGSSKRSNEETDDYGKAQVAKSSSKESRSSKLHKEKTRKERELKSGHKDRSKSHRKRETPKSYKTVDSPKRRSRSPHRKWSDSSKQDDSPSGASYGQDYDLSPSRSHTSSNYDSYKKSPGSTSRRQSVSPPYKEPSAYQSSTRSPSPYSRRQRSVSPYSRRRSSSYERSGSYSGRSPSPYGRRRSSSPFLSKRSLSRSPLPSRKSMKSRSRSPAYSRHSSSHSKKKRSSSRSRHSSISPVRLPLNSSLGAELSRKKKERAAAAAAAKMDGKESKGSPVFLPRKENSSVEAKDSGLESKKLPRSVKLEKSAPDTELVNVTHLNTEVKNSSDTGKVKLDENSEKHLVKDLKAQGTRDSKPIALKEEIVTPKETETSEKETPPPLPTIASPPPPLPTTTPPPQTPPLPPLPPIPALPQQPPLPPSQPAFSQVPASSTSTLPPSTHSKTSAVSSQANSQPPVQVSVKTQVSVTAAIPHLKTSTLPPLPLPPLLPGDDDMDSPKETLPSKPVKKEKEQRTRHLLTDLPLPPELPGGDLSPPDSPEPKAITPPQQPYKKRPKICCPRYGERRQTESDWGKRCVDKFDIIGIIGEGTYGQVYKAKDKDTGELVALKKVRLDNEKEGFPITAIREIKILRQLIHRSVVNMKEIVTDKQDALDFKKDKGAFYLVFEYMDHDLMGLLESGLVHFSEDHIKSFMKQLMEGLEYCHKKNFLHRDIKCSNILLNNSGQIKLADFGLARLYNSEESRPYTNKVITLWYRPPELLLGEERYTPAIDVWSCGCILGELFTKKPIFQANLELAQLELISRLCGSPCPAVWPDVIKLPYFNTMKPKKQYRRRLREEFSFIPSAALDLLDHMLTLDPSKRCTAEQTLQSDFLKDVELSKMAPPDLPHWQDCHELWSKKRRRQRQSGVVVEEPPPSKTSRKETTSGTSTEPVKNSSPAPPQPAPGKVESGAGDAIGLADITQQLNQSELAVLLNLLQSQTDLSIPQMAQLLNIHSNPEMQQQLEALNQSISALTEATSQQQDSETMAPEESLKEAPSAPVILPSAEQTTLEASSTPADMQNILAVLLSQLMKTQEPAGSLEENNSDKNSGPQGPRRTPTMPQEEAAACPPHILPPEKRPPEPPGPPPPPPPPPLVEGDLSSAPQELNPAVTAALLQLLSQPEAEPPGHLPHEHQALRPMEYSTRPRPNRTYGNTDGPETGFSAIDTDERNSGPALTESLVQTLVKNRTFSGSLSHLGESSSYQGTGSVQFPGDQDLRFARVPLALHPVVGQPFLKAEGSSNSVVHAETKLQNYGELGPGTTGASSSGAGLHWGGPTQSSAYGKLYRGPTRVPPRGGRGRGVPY
T1 sequence (O75909 whole entry partner): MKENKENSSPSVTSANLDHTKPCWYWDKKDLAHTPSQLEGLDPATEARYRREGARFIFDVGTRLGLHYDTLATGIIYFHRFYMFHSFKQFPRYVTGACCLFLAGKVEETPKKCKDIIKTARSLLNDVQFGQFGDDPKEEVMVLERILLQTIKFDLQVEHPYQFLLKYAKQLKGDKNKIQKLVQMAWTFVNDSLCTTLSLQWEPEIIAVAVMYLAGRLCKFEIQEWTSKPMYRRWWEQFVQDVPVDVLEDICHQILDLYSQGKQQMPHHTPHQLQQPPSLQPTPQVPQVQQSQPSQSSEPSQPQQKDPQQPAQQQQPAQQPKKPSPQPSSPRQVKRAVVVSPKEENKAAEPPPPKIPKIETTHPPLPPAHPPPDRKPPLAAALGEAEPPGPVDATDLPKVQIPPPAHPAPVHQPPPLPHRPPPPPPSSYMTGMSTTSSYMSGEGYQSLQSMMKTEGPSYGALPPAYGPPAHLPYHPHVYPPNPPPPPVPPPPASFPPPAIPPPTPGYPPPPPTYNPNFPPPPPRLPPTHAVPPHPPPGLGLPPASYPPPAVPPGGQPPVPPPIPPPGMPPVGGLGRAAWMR
Assay type: biochemical
Method: The following activity of the CDK enzymes in complex with their respective cyclins we assayed: CDK1 complexed with Cyclin B1; CDK2 complexed with Cyclin E1; CDK4 complexed with Cyclin D1; CDK6 complexed with Cyclin D1; CDK6 complexed with Cyclin D3; CDK9 complexed with Cyclin T1; CDK7 complexed with Cyclin H/MAT1; CDK2 complexed with Cyclin A2; CDK5 complexed with p35; CDK12 complexed with Cyclin K; CDK13 complexed with Cyclin K. These in vitro enzyme activity are assayed using homogeneous time-resolved energy transfer (HTRF), which measures phosphorylation of a peptide substrate. The LANCE® Ultra kinase assay (PerkinElmer) uses a ULight™-labeled EIF4E-binding protein 1 (THR37/46) peptide (DYSTTPGGTLFSTTPGTRI (SEQ ID NO: 1)) substrate and a Europium-labeled anti-phospho-4E-BP1 antibody (CDK2, CDK1, CDK4, CDK6, CDK9, CDK12, CDK13) or ULight™-labeled Myelin Basic Protein peptide (VTPRTPPP (SEQ ID NO: 2)) substrate and a Europium-labeled anti-phospho-MBP antibody (CDK7). Each CDK enzyme activity assays utilized human CDK co-expressed as N-terminal GST-tagged protein with its full length cyclin partner using a baculovirus expression system.
Enzyme was pre-incubated with compounds for 30 minutes (CDK1,2,4,6,9) or 60 minutes (CDK7, CDK12, CDK13) prior to addition of ATP and Ulight-peptide (1 mM and 50 nM final, respectively), in assay buffer containing 50 mM HEPES pH 7.5, 1 mM EGTA, 10 mM MgCl2, 2 mM DTT, 0.05 mg/mL BSA, and 0.01% Tween 20. The reaction was then incubated for 60-90 minutes at room temperature. The reactions were stopped by the addition of EDTA and Europium labeled antibody, for a final concentration of 15 mM and 1.0-1.5 nM, respectively. HTRF signals were read after 15-120 minutes. A ratio of fluorescence transferred to the labeled substrate (665 nm) relative to fluorescence of the Europium donor (620 nm) represents the extent of phosphorylation. Ratios for treated wells were normalized to DMSO only (100% activity) and no enzyme (0% activity) controls. Normalized data was analyzed using a three or four parameter dose response curve to determine IC50 for each compound and are shown in Table A. Control reference inhibitors were included on each plate.
With `C=CC(=O)Nc1ccc(C(=O)N2CC(Nc3nc4cnc(-c5cn[nH]c5)c(OC(C)C)n4n3)C2)cc1` [Example 1, N-(4-(3-((5-Isopropoxy-6-(1H-pyrazol-4-yl)-[1,2,4]triazolo[1,5-a]pyrazin-2-yl)amino)azetidine-1-carbonyl)phenyl)acrylamide] the IC50 was less than 50 nM.
For `C=CC(=O)Nc1ccc(C(=O)N2CCC(Nc3nc4c(OC)c(-c5cn[nH]c5)ncn4n3)CC2)cc1` [Example 2, N-(4-(4-((8-Methoxy-7-(1H-pyrazol-4-yl)-[1,2,4]triazolo[1,5-c]pyrimidin-2-yl)amino)piperidine-1-carbonyl)phenyl)acrylamide], the IC50 was less than 50 nM.
Compound `C=CC(=O)Nc1ccc(C(=O)N2CC(Nc3nc4c(OC)c(-c5cn[nH]c5)ncn4n3)C2)cc1` [Example 3, N-(4-(3-((8-Methoxy-7-(1H-pyrazol-4-yl)-[1,2,4]triazolo[1,5-c]pyrimidin-2-yl)amino)azetidine-1-carbonyl)phenyl)acrylamide] has an IC50 of less than 50 nM.
Compound `C=CC(=O)Nc1ccc(C(=O)N2CCC[C@@H](Nc3nc4cnc(-c5cn[nH]c5)c(OC(C)C)n4n3)C2)c(F)c1` [Example 4, (R)-N-(3-Fluoro-4-(3-((5-isopropoxy-6-(1H-pyrazol-4-yl)-[1,2,4]triazolo[1,5-a]pyrazin-2-yl)amino)piperidine-1-carbonyl)phenyl)acrylamide] has an IC50 of less than 50 nM.
`C=CC(=O)Nc1ccc(C(=O)N2CCC[C@@H](Nc3nc4c(OC)c(-c5cn[nH]c5)ncn4n3)C2)cc1` [Example 5, (R)-N-(4-(3-((8-Methoxy-7-(1H-pyrazol-4-yl)-[1,2,4]triazolo[1,5-c]pyrimidin-2-yl)amino)piperidine-1-carbonyl)phenyl)acrylamide] gave an IC50 of less than 50 nM.
In the case of `C=CC(=O)Nc1ccc(C(=O)N2CCC[C@@H](Nc3nc4ccc(-c5cn[nH]c5)c(N5CCCCC5)n4n3)C2)cc1` [Example 6, (R)-N-(4-(3-((5-(Piperidin-1-yl)-6-(1H-pyrazol-4-yl)-[1,2,4]triazolo[1,5-a]pyridin-2-yl)amino)piperidine-1-carbonyl)phenyl)acrylamide], the IC50 is reported as less than 50 nM.
`C=CC(=O)Nc1ccc(C(=O)N2CCC[C@@H](Nc3nc4ccc(-c5cn[nH]c5)c(N5CCCC5)n4n3)C2)cc1` [Example 7, (R)-N-(4-(3-((6-(1H-Pyrazol-4-yl)-5-(pyrrolidin-1-yl)-[1,2,4]triazolo[1,5-a]pyridin-2-yl)amino)piperidine-1-carbonyl)phenyl)acrylamide] gave an IC50 of less than 50 nM.
With `C=CC(=O)Nc1ccc(C(=O)N2CCC[C@@H](Nc3nc4ccc(-c5cn[nH]c5)c(N5CCOCC5)n4n3)C2)cc1` [Example 8, (R)-N-(4-(3-((5-Morpholino-6-(1H-pyrazol-4-yl)-[1,2,4]triazolo[1,5-a]pyridin-2-yl)amino)piperidine-1-carbonyl)phenyl)acrylamide] the IC50 was less than 50 nM.
In the case of `C=CC(=O)Nc1ccc(C(=O)N2CCCC(Nc3nc4ccc(-c5c[nH]nc5C)c(N5CCOCC5)n4n3)C2)cc1` (stereo not drawn) [Example 9, N-(4-(3-((6-(3-Methyl-1H-pyrazol-4-yl)-5-morpholino-[1,2,4]triazolo[1,5-a]pyridin-2-yl)amino)piperidine-1-carbonyl)phenyl)acrylamide], the IC50 is reported as greater than 500 nM.
With `C=CC(=O)Nc1ccc(C(=O)N2CCC[C@@H](Nc3nc4cnc(-c5cn[nH]c5)c(OC5CC(F)(F)C5)n4n3)C2)cc1` [Example 10, (R)-N-(4-(3-((5-(3,3-Difluorocyclobutoxy)-6-(1H-pyrazol-4-yl)-[1,2,4]triazolo[1,5-a]pyrazin-2-yl)amino)piperidine-1-carbonyl)phenyl)acrylamide] the IC50 was less than 50 nM.
`C=CC(=O)Nc1ccc(C(=O)N2CC[C@@H](Nc3nc4ccc(-c5cn[nH]c5)cn4n3)C2)cc1` [Example 11, (R)-N-(4-(3-((6-(1H-Pyrazol-4-yl)-[1,2,4]triazolo[1,5-a]pyridin-2-yl)amino)pyrrolidine-1-carbonyl)phenyl)acrylamide] was tested, and the IC50 was less than 50 nM.
Work on `C=CC(=O)Nc1ccc(C(=O)N2CC[C@@H](Nc3nc4ccc(-c5cn[nH]c5)c(C)n4n3)C2)cc1` [Example 12, (R)-N-(4-(3-((5-Methyl-6-(1H-pyrazol-4-yl)-[1,2,4]triazolo[1,5-a]pyridin-2-yl)amino)pyrrolidine-1-carbonyl)phenyl)acrylamide] yielded an IC50 of less than 50 nM.
Compound `C=CC(=O)Nc1ccc(C(=O)N2CCC[C@@H](Nc3nc4ccc(-c5cn[nH]c5)c(N5CCC(F)(F)CC5)n4n3)C2)cc1` [Example 13, (R)-N-(4-(3-((5-(4,4-Difluoropiperidin-1-yl)-6-(1H-pyrazol-4-yl)-[1,2,4]triazolo[1,5-a]pyridin-2-yl)amino)piperidine-1-carbonyl)phenyl)acrylamide] has an IC50 of 50 to 500 nM.
`C=CC(=O)Nc1ccc(C(=O)N2CCC[C@@H](Nc3nc4ccc(-c5cn[nH]c5)c(O[C@H]5CCOC5)n4n3)C2)cc1` [Example 14, N-(4-((R)-3-((6-(1H-Pyrazol-4-yl)-5-(((S)-tetrahydrofuran-3-yl)oxy)-[1,2,4]triazolo[1,5-a]pyridin-2-yl)amino)piperidine-1-carbonyl)phenyl)acrylamide] was tested, and the IC50 was less than 50 nM.
Work on `C=CC(=O)Nc1ccc(C(=O)N2CCC[C@@H](Nc3nc4ccc(-c5cn[nH]c5)c(OC5CCOCC5)n4n3)C2)cc1` [Example 15, (R)-N-(4-(3-((6-(1H-Pyrazol-4-yl)-5-((tetrahydro-2H-pyran-4-yl)oxy)-[1,2,4]triazolo[1,5-a]pyridin-2-yl)amino)piperidine-1-carbonyl)phenyl)acrylamide] yielded an IC50 of less than 50 nM.
Compound `C=CC(=O)Nc1ccc(O[C@H]2CCC[C@@H](Nc3nc4ccc(-c5cn[nH]c5)c(N5CCCCC5)n4n3)C2)cc1` [Example 16, N-(4-(((1S,3R)-3-((5-(Piperidin-1-yl)-6-(1H-pyrazol-4-yl)-[1,2,4]triazolo[1,5-a]pyridin-2-yl)amino)cyclohexyl)oxy)phenyl)acrylamide] has an IC50 of less than 50 nM.
`C=CC(=O)Nc1ccc(C(=O)N2CC[C@@H](Nc3nc4ccc(-c5cn[nH]c5)c(C#N)n4n3)C2)cc1` [Example 17, (R)-N-(4-(3-((5-Cyano-6-(1H-pyrazol-4-yl)-[1,2,4]triazolo[1,5-a]pyridin-2-yl)amino)pyrrolidine-1-carbonyl)phenyl)acrylamide] gave an IC50 of less than 50 nM.
`C=CC(=O)Nc1ccc(C(=O)N2CC[C@@H](Nc3nc4ccc(-c5cn[nH]c5)c(C(C)C)n4n3)C2)cc1` [Example 18, (R)-N-(4-(3-((5-Isopropyl-6-(1H-pyrazol-4-yl)-[1,2,4]triazolo[1,5-a]pyridin-2-yl)amino)pyrrolidine-1-carbonyl)phenyl)acrylamide] showed an IC50 of less than 50 nM.
Work on `C=CC(=O)Nc1ccc(C(=O)N2CC[C@@H](Nc3nc4ccc(-c5cn[nH]c5)c(C(C)C)n4n3)C2)cc1F` [Example 19, (R)-N-(2-Fluoro-4-(3-((5-isopropyl-6-(1H-pyrazol-4-yl)-[1,2,4]triazolo[1,5-a]pyridin-2-yl)amino)pyrrolidine-1-carbonyl)phenyl)acrylamide] yielded an IC50 of less than 50 nM.
In the case of `C=CC(=O)Nc1ccc(C(=O)N2CC[C@@H](Nc3nc4ccc(-c5cnco5)cn4n3)C2)cc1` [Example 20, (R)-N-(4-(3-((6-(Oxazol-5-yl)-[1,2,4]triazolo[1,5-a]pyridin-2-yl)amino)pyrrolidine-1-carbonyl)phenyl)acrylamide], the IC50 is reported as less than 50 nM.
For `C=CC(=O)Nc1ccc2c(c1)C(=O)N([C@H]1CCC[C@@H](Nc3nc4ccc(-c5cn[nH]c5)c(N5CCCCC5)n4n3)C1)C2` [Example 21, N-(3-Oxo-2-((1S,3R)-3-((5-(piperidin-1-yl)-6-(1H-pyrazol-4-yl)-[1,2,4]triazolo[1,5-a]pyridin-2-yl)amino)cyclohexyl)isoindolin-5-yl)acrylamide], the IC50 was less than 50 nM.
With `C=CC(=O)Nc1ccc2c(c1)C(=O)N([C@H]1CCC[C@@H](Nc3nc4ccc(-c5cn[nH]c5)c(C)n4n3)C1)C2` [Example 22, N-(2-((1S,3R)-3-((5-Methyl-6-(1H-pyrazol-4-yl)-[1,2,4]triazolo[1,5-a]pyridin-2-yl)amino)cyclohexyl)-3-oxoisoindolin-5-yl)acrylamide] the IC50 was less than 50 nM.
With `C=CC(=O)Nc1ccc2c(c1)C(=O)N([C@H]1CCC[C@@H](Nc3nc4ccc(-c5cn[nH]c5)c(C(C)C)n4n3)C1)C2` [Example 23, N-(2-((1S,3R)-3-((5-Isopropyl-6-(1H-pyrazol-4-yl)-[1,2,4]triazolo[1,5-a]pyridin-2-yl)amino)cyclohexyl)-3-oxoisoindolin-5-yl)acrylamide] the IC50 was less than 50 nM.
Work on `C=CC(=O)Nc1ccc(C(=O)N2CC[C@@H](Nc3nc4cc(C)c(-c5cn[nH]c5)cn4n3)C2)cc1` [Example 24, (R)-N-(4-(3-((7-Methyl-6-(1H-pyrazol-4-yl)-[1,2,4]triazolo[1,5-a]pyridin-2-yl)amino)pyrrolidine-1-carbonyl)phenyl)acrylamide] yielded an IC50 of 50 to 500 nM.
